One compound from patent publication US11779559B2, “Compositions for treating fungal and bacterial biofilms and methods of using the same” (priority 2017, dated 2023) can be followed below.

One assay has as its system S. aureus. The assay can be described thus: Disruption biofilm assay, bacterial. The assay is classed as cell-based, Staphylococcus aureus. The conditions noted are these: Staphylococcus aureus, 24 h; disruption assay; S. aureus; 1% amino acid (unless specifically noted); p≤0.001; read-out: Reduce B Biofilm. The protocol:
Two types of biofilm assays were performed: a sustained inhibition assay and a disruption assay. The sustained inhibition assay assesses the compound's ability to prevent biofilm development throughout all stages of biofilm formation, while the disruption assay assesses the compound's ability to break up an existing mature biofilm. These assays are described in detail in the following article: Lohse, M. B., Gulati, M., Valle Arevalo, A., Fishburn, A., Johnson, A. D., and Nobile, C. […] Antimicrobial Agents and Chemotherapy 61: e02749-16.
All bacterial biofilm solutions were prepared in Trypic Soy Broth (TSB), supplemented with 1% glucose (henceforth referred to as TSB-G). All subsequent procedures were performed in a manner that maintained sterility. A solution of each amino acid to be tested was prepared in weight to volume concentrations ranging from 0.1-5.0%. Amino acids were also tested in combinations. Compound solutions were homogenized with gentle agitation in the dark (4° C., 24 hours) before use.
Bacterial strains were streaked on Blood Agar plates (5% sheep blood in Tryptic Soy Agar) and incubated at 37° C. for 24 hours. A single colony from each strain to be tested was inoculated in a TSB broth and grown for 12 hours, at 37° C. with shaking (225 rpm). For the bacterial biofilm inhibition assays, 1 μL of saturated overnight cell culture was added to either 80 μL of TSB-G, or TSB-G supplemented with the amino acid compound solution to be tested, in a 384-well plate. The cells were allowed to adhere to the plate for 60 minutes at 37° C. without shaking. The media was carefully aspirated and 80 μL of TSB-G, or TSB-G supplemented with the amino acid compound solution was added to the plate. The plate was further incubated for 24 hours at 37° C. without shaking. Media was carefully aspirated and the biofilm was measured by optical density at 600 nm. Eight or twelve replicates were performed for each tested condition and the reported values are normalized to the control (TSB-G media only). For the bacterial biofilm disruption assays, 80 μL of TSB-G was added to the plate, along with 1 μL of overnight cell culture. The cells were allowed to adhere to the plate for 60 minutes at 37° C. with no shaking. The media was carefully aspirated and 80 μL of TSB-G was added to the plate. The plate was further incubated for 24 hours at 37° C. with no shaking. Media was carefully aspirated from the mature biofilm and 80 μL of TSB-G, or TSB-G supplemented with the amino acid to be tested, was gently added to the plate. The plate was further incubated for 24 hours at 37° C. without shaking. Media was aspirated and the biofilm was measured by optical density at 600 nm. Twelve replicates were performed for each tested condition and the reported values are normalized to the control (TSB-G media only).

Assay [1] has as its system bacteria (S. aureus) biofilm and fungal (C. albicans) biofilm. The assay can be described thus: Sustained inhibition biofilm assay, bacterial and fungal taken together. The assay is classed as cell-based. The conditions noted are these: sustained inhibition assay; bacterial and fungal biofilm; 1% amino acid (unless specifically noted); p≤0.001. The protocol: Two types of biofilm assays were performed: a sustained inhibition assay and a disruption assay. The sustained inhibition assay assesses the compound's ability to prevent biofilm development throughout all stages of biofilm formation, while the disruption assay assesses the compound's ability to break up an existing mature biofilm. These assays are described in detail in the following article: Lohse, M. B., Gulati, M., Valle Arevalo, A., Fishburn, A., Johnson, A. D., and Nobile, C. J. (2017) Assessment and optimizations of Candida albicans in vitro biofilm assays. Antimicrobial Agents and Chemotherapy 61: e02749-16.
For fungal biofilm assays, all solutions were prepared in RPMI 1640 medium. All bacterial biofilm solutions were prepared in Trypic Soy Broth (TSB), supplemented with 1% glucose (henceforth referred to as TSB-G). All subsequent procedures were performed in a manner that maintained sterility. A solution of each amino acid to be tested was prepared in weight to volume concentrations ranging from 0.1-5.0%. Amino acids were also tested in combinations. Compound solutions were homogenized with gentle agitation in the dark (4° C., 24 hours) before use.
Fungal strains were streaked on Yeast Peptone Dextrose (YPD) agar plates and incubated at 30° C. for 48 hours. A single colony from each strain to be tested was inoculated into YPD broth and grown for 12 hours, at 30° C., shaking at 225 rpm. For the fungal biofilm inhibition assay, 1 μl of saturated overnight cell culture was added to either 80 μL of RPMI-1640 or RPMI-1640 supplemented with the amino acid compound solution to be tested, in a 384-well plate. […] Media was carefully aspirated and the biofilm was measured by optical density at 600 nm. […] Media was carefully aspirated and the biofilm was measured by optical density at 600 nm. […]
Bacterial strains were streaked on Blood Agar plates (5% sheep blood in Tryptic Soy Agar) and incubated at 37° C. for 24 hours. […] Media was carefully aspirated and the biofilm was measured by optical density at 600 nm. […]

For `N[C@@H](CC(=O)O)C(=O)O` [Aspartic Acid, L-aspartic acid], in the assay on S. aureus, the inhibition at 1 % was over 30%. Moreover, the “Reduce Both” value in assay [1] was “●● (two dots [ie. ••] signifies major effect (greater than about 30% change))”.
